Assay: Human free systemic Cmax in clinical studies
Type: in vivo
Details: based on 99.2% protein binding

For `CCCSc1nc(N[C@@H]2C[C@H]2c2ccc(F)c(F)c2)c2nnn([C@@H]3C[C@H](OCCO)[C@@H](O)[C@H]3O)c2n1` [Ticagrelor], the “Human free systemic Cmax” value was 12 nM.

— paper PMC5598522 (Toxicology Reports, 2014)
